Experimental data from BindingDB's records for doi:10.1016/j.bmcl.2010.11.050 (The University of Tokushima Graduate School, 2010).

What follows are compounds tested against Carbonic anhydrase 2 (Bos taurus, UniProt P00921) (assay: Binding affinity to bovine carbonic anhydrase 2).
Chain of Carbonic anhydrase 2 (P00921 whole entry): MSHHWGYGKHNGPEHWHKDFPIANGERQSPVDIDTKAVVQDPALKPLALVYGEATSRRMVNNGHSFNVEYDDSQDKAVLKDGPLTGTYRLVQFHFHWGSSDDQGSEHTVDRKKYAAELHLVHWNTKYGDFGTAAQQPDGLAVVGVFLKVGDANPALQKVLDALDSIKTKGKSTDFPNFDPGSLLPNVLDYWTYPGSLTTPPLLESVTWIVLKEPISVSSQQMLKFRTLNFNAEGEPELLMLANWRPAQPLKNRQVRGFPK
`Cc1ccc(S(N)(=O)=O)cc1` was tested, and the Ki was 58 nM. With `NS(=O)(=O)c1ccc([N+](=O)[O-])c(C(F)(F)F)c1` the Ki was 1.7 nM. For `NS(=O)(=O)c1ccc(Cl)c(Cl)c1` [3,4-Dichloro-Benzenesulfonamide], the Ki was 2.5 nM. With `NS(=O)(=O)c1cccc(Cl)c1` [3-Chloro-Benzenesulfonamide] the Ki was 16 nM. `Cc1cccc(S(N)(=O)=O)c1` [3-Methylbenzenesulfonamide] showed a Ki of 132 nM. For `NS(=O)(=O)c1cccc([N+](=O)[O-])c1` [3-Nitro-benzenesulfonamide], the Ki was 8.5 nM. With `CC(=O)c1ccc(S(N)(=O)=O)cc1` [4-Acetyl-Benzenesulfonamide] the Ki was 17 nM. Compound `NS(=O)(=O)c1ccc(Cl)c([N+](=O)[O-])c1` [4-Chloro-3-nitro-benzenesulfonamide] has a Ki of 2 nM. Work on `N#Cc1ccc(S(N)(=O)=O)cc1` [4-Cyano-Benzenesulfonamide] yielded a Ki of 7.1 nM. In the case of `COc1ccc(S(N)(=O)=O)cc1` [4-Methoxy-Benzenesulfonamide], the Ki is reported as 102 nM. `CNc1ccc(S(N)(=O)=O)cc1` [4-Methylamino-benzenesulfonamide] gave a Ki of 288 nM. With `NS(=O)(=O)c1ccc(Cl)cc1` [p-Halide-sulfanilamide derivative, 2] the Ki was 14 nM. In the case of `NS(=O)(=O)c1ccc(Br)cc1` [p-Halide-sulfanilamide derivative, 2a], the Ki is reported as 14 nM.
